Test results as given in patent publication US20170065593A1, “Combination” (Novartis AG, priority 2009, published 2017).
Where two headings read alike, the source gives them in different places.

Key:
95 cancer cell lines = tested on: 95 cancer cell lines
Description: (Compound A) or mTOR inhibitor (mTORi, Rapamycin) alone or a combination of both agents at a ratio of 1:2 (MEKi:mTORi) and cell proliferation/death was measured after 3 day drug exposure. Briefly, cells were plated in 384-well plates at 500 cells/well in culture media appropriate for each cell type, supplemented with 10% FBS and 1% penicillin/streptomycin, and incubated overnight at 37° C., 5% CO2. […] (two fold dilutions ranging from 7.3 uM-0.014 nM) or with mTOR inhibitor (two fold dilutions ranging from 14.6 uM-0.112 nM) or in combination with both compounds and incubated for 72 hours. Cell growth was measured using the CellTiterGlo (CTG) reagent (Promega) according to the manufacturer's protocol. Data were analyzed using the XLfit (IDBS Ltd.) curve-fitting tool for Microsoft Excel. Growth IC50 (gIC50) and Ymin values were generated using a four-parameter curve fit algorithm (XLFit algorithm #205).
Results were expressed as a percent of the t=0 and plotted against the compound concentration. The T=0 value is normalized to 100% and represents the number of cells at the time of compound addition. […] Formula below was used to calculate mutually exclusive combination index (CI). Data were reported as log CI, where the logarithm value of CI was calculated.
CI=IC50 of a+b/IC50 of a+IC50 of b+a/IC50 of b
Synergy is defined as CI<1, additivity as CI=1 and antagonism as CI>1. Considering the variability of these proliferation assays we arbitrarily defined log CI>0.1 as antagonism, between −0.1 and 0.1 as no significant effect and <−0.1 as synergy.

[1] = tested on: A549 lung cancer cell line; assay: Assay 2: cell growth (CellTiterGlo, 72 hours), Ymin; assay type: cell-based; details: percent of T=0 (T=0 = 100%)
Description: FIG. 5 depicts the effect of MEK inhibitor, mTOR inhibitor and their combination on A549 lung cancer cell line growth. […] Cells were treated with MEK inhibitor (two fold dilutions ranging from 7.3 uM-0.014 nM) or with mTOR inhibitor (two fold dilutions ranging from 14.6 uM-0.112 nM) or in combination with both compounds and incubated for 72 hours. Cell growth was measured using the CellTiterGlo (CTG) reagent (Promega) according to the manufacturer's protocol. Data were analyzed using the XLfit (IDBS Ltd.) curve-fitting tool for Microsoft Excel. Growth IC50 (gIC50) and Ymin values were generated using a four-parameter curve fit algorithm (XLFit algorithm #205). Results were expressed as a percent of the t=0 and plotted against the compound concentration. […] Formula below was used to calculate mutually exclusive combination index (CI). Data were reported as log CI, where the logarithm value of CI was calculated. […] Similar analysis was performed for all cell lines and Ymin results are depicted in FIG. 6.

Q: `CO[C@H]1C[C@@H]2CC[C@@H](C)[C@@](O)(O2)C(=O)C(=O)N2CCCC[C@H]2C(=O)O[C@H]([C@H](C)C[C@@H]2CC[C@@H](O)[C@H](OC)C2)CC(=O)[C@H](C)/C=C(\C)[C@@H](O)[C@@H](OC)C(=O)[C@H](C)C[C@H](C)/C=C/C=C/C=C/1C` [Rapamycin] was tested. Which “% of cells with cytotoxic response” value (95 cancer cell lines; KRAS WT / PI3K WT cell lines) did it give?
A: 10%

Q: And the “% of cells with cytotoxic response” value (95 cancer cell lines; KRAS WT / PI3K mutant cell lines)?
A: 5%

Q: And the “% of cells with cytotoxic response” value (95 cancer cell lines; KRAS WT cell lines)?
A: 10%

Q: And the “% of cells with cytotoxic response” value (95 cancer cell lines; KRAS mutant / PI3K WT cell lines)?
A: 11%

Q: What about the “% of cells with cytotoxic response” value (95 cancer cell lines; KRAS mutant / PI3K mutant cell lines) of the same molecule?
A: 6%

Q: And the “% of cells with cytotoxic response” value (95 cancer cell lines; KRAS mutant cell lines)?
A: 8%

Q: What about the “% of cells with cytotoxic response” value (95 cancer cell lines; PI3K WT cell lines) of the same molecule?
A: 8%

Q: And the “% of cells with cytotoxic response” value (95 cancer cell lines; PI3K mutant cell lines)?
A: 12%

Q: And the “percentage of cell undergoing death (cytotoxic)” value (95 cancer cell lines; all cell lines, Ymin below T=0)?
A: 9.5%

Q: And the “cell lines undergoing death” value (95 cancer cell lines; single agent, across KRAS and PI3K mutational subgroups)?
A: ≤ 11%

Q: And the “Ymin (lower Y value at any compound concentration)” value [1]?
A: 487%
